Results reported in patent EP4671239A1, “ARYL SUBSTITUENT-CONTAINING DEGRADATION AGENT FOR CDK12/13, PREPARATION METHOD THEREFOR, AND PHARMACEUTICAL COMPOSITION AND USE THEREOF” (Shanghai Institute of Organic Chemistry, Chinese Academy of …, priority 2023, dated 2024).

What was measured:
CDK12 and CDK13 proteins [1] = test: Degradation activity on CDK12/13 in 22RV1 cells (Western Blot); assay type: cell-based; conditions: 22RV1 cells; for degradation of CDK12 and CDK13 proteins: 100 nM, 6 h (FIG. 5); for degradation of CDK12 and CDK13 protein levels in cells: 500 nM, 6 hours, WB (FIG. 4); for dose dependence of degradation of CDK12 and CDK13 proteins: different concentrations, 6 h (FIG. 4B, FIG. 5)
Protocol: Experimental methods: The cell line, 22RV1 cell line was purchased from the American Type Culture Collection (ATCC). Conventional Western Blot was used for detection as follows: 22RV1 cells were seeded in a certain number in a 12-well plate, and cultured overnight in an incubator in an adherent manner. […] The cells were lysed with a lysis buffer, and samples were collected. Then, an appropriate amount of the samples was taken for SDS-PAGE electrophoresis. After electrophoresis, the proteins were transferred to nitrocellulose membranes using a semi-dry electro-transfer system. The nitrocellulose membrane was placed in a blocking solution (5% skim milk powder diluted in TBS containing 0.1% Tween 20) and blocked at room temperature for 2 h. The membranes were then placed in a primary antibody solution (1: 1000 diluted in TBS containing 0.1% Tween 20), respectively, and incubated at 4°C overnight. The cells were washed three times with TBS containing 0.1% Tween 20, each time for 15 min. The membrane was placed in a secondary antibody solution (horseradish peroxidase-labeled goat anti-rabbit IgG, diluted at 1:1000 in TBS containing 0.1% Tween 20) and reacted at room temperature for 1 h. After washing the membrane three times as above, the membrane was developed with ECL plus reagent and photographed using Amersham Imager 600 system.

[2] = system: prostate cancer VCap cells; test: Proliferation-inhibiting activity on VCap cells (CellTiter-Glo); assay type: cell-based; conditions: Homo sapiens; VCap cell line, CellTiter-Glo (FIG. 6)
Protocol: The cell proliferation-inhibiting activity of the compounds was determined using the CellTiter-Glo Luminescent Cell Viability Assay (Promega, Madison, WI). The cells were seeded in a 96-well plate in their respective culture media and incubated at 37°C in a 5% CO2 incubator. After overnight incubation, serial dilutions of the compounds were prepared and added to the 96-well plate. A volume of CellTiter-Glo reagent equal to the volume of the cell culture medium present in each well was added (e.g., 100 microliters of the reagent was added to 100 microliters of the culture medium for the cells in the 96-well plate). The contents were mixed on an orbital shaker for 2 min to induce cell lysis. The 96-well plate was incubated at room temperature for 10 minutes to stabilize a luminescent signal. Luminescence was recorded: the luminescence signal of each well was acquired using an Infinite M1000 Pro plate reader (Tecan, Zürich, Switzerland), and the data were analyzed using GraphPad Prism software (GraphPad Software Inc, La Jolla, CA).

[3] = Pharmacokinetics and bioavailability test in rats (Example 60); assay type: in vivo; conditions: SD rats; for F: bioavailability calculated from AUC; for oral pharmacokinetic properties: summary in words of Tables 2-6; for Cmax / Tmax / clearance / half-life: Sprague-Dawley, rat, plasma
Protocol: Pharmacokinetics and bioavailability tests in rats. SD rats were given a single oral (10 mg/kg), intravenous (2.5 mg/kg) and intraperitoneal (10 mg/kg) dose, followed by animal blood sample collection at appropriate time points. Heparin was added for anticoagulation, and the samples were centrifuged at 8000 rpm for 6 min. The supernatant was collected and stored at -20°C for HPLC-MS analysis. The blood samples underwent protein precipitation with acetonitrile at 12 000 rpm * 10 min, and the supernatant was used for HPCL-MS analysis. The data underwent parameter fitting with DAS2.0, to obtain compartmental model and non-compartmental model parameters, respectively. The oral bioavailability of the compounds was calculated based on the area under the plasma concentration-time curve (AUC) data. […] Table 2. Pharmacokinetic experimental results of compounds YJZ9069 and YJZ1102

CDK12 and CDK13 proteins [4] = test: Degradation activity on CDK12/13 in MDA-MB-231 cells (Western Blot); assay type: cell-based; conditions: 0.1µM or 0.3µM, 15 h, WB (FIG. 1)
Protocol: Experimental methods: The cell line MDA-MB-231 was purchased from the American Type Culture Collection (ATCC). Conventional Western Blot was used for detection, as follows: MDA-MB-231 cells were seeded at a density of 2 x 10^5/mL in a 12-well plate, with 1 mL per well, and cultured overnight in an incubator in an adherent manner. Then, a certain concentration of compounds was added to act for 15 h. The cells were lysed with a lysis buffer, and protein samples were collected. An appropriate amount of the sample was taken for SDS-PAGE electrophoresis. After electrophoresis, the protein was transferred to a polyvinylidene fluoride (PVDF) membrane using a wet electro-transfer system. The PVDF membrane after electro-transfer was cut into several required strips, which were then placed in a blocking solution (5% skim milk powder diluted in TBS containing 0.1% Tween 20) and blocked at room temperature for 1.5 h. A primary antibody solution was prepared by diluting a primary antibody against the corresponding target protein in TBS containing 0.1% Tween 20 according to the dilution requirements of different antibodies, such as 1:1000 (CST), 1:3000 (Proteintech, Bethyl), and 1:200 (Santacruz). The blocked membrane was placed in the corresponding primary antibody solution and incubated at 4°C for 12-14 h. Then, the cells were washed three times with TBS containing 0.1% Tween 20, each time for 5 min. After washing, the membrane was placed in a secondary antibody solution (horseradish peroxidase-labeled goat anti-rabbit IgG, diluted at 1:2000 in TBS containing 0.1% Tween 20) and reacted at room temperature for 2 h. After washing the membrane three times as above, the membrane was developed with StarSignal plus reagent (GenStar®) and Omni-ECL reagent (Yazyme®), and photographed with Amersham Imager 800 system.

[5] = system: triple negative breast cancer cells MDA-MB-231; test: Proliferation-inhibiting activity on MDA-MB-231 cells (Cell Counting Kit-8); assay type: cell-based; conditions: Homo sapiens, 120 h; MDA-MB-231 cell line, 5 days, cck-8 (FIG. 3)
Protocol: The cell proliferation-inhibiting activity of the compounds was determined using Cell Counting Kit-8 Cell Viability Assay (Selleck.cn). The cells were seeded into a 384-well plate (CORNING® PS 3701) containing the corresponding culture medium and incubated in an incubator at 37°C with 5% CO2. After overnight incubation, a high-concentration stock solution of each compound to be tested was prepared; the compound was added to the 384-well plate according to a concentration gradient using an Echo® 650 Liquid Handler (LABCYTE®). After administration, the cell plate was placed in an incubator at 37°C with 5% CO2 and incubated for 5 days. Then, 5 µL of cck-8 reagent was added to each well of the 384-well plate using MULTIDROP® (Thermo Scientific™), and the plate was returned to the incubator for incubation for 1.5-2 h. After incubation, the plate was removed and centrifuged to remove bubbles. The absorbance of each well at 450 nm and 650 nm was obtained using EnVision® (PerkinElmer®). GraphPad Prism software (GraphPad Software Inc.) was used to process and analyze the data.

## O=C1CCC(N2C(=O)c3ccc(N4CCC(N5CCN(c6ccc(N(C(=O)NCc7ccccc7)[C@H]7CC[C@H](Nc8ncc9ccccc9n8)CC7)cc6F)CC5)CC4)cc3C2=O)C(=O)N1 (some centres unmarked) [YJZ1204, 3-benzyl-1-(4-(4-(1-(2-(2,6-dioxopiperidin-3-yl)-1,3-dioxoisoindole-5-yl)piperidin-4-yl)-piperazin-1-yl)-3-fluorophenyl)-1-((1r,4r)-4-(quinazolin-2-ylamino)cyclohexyl)urea]
CDK12 and CDK13 proteins [1]
  degradation of CDK12 and CDK13 proteins: almost completely degrade
  degradation of CDK12 and CDK13 protein levels in cells: effectively degrade
  dose dependence of degradation of CDK12 and CDK13 proteins: dose-dependent manner
[2]
  IC50: 0.0233 µM
[3]; PO 10 mg/kg
  F: 30.13%
  Cmax: 457 ng/mL
  Tmax: 7.33 h
  half-life: 10.8 h
[3]
  oral pharmacokinetic properties: excellent
[3]; IV 2.5 mg/kg
  Cmax: 2290 ng/mL
  Tmax: 0.08 h
  clearance: 6.01 mL/min/kg
  half-life: 8.54 h

## O=C1CCC(N2C(=O)c3ccc(N4CCC(N5CCN(c6ccc(N(C(=O)NCc7ccccc7)[C@H]7CC[C@H](Nc8ncc9ccccc9n8)CC7)cn6)CC5)CC4)cc3C2=O)C(=O)N1 (some centres unmarked) [YJZ1205]
CDK12 and CDK13 proteins [1]
  degradation of CDK12 and CDK13 proteins: almost completely degrade
  degradation of CDK12 and CDK13 protein levels in cells: effectively degrade
  dose dependence of degradation of CDK12 and CDK13 proteins: dose-dependent manner
[2]
  IC50: 0.0135 µM
[3]; PO 10 mg/kg
  F: 15.87%
  Cmax: 581 ng/mL
  Tmax: 4.7 h
  half-life: 4.2 h
[3]
  oral pharmacokinetic properties: excellent
[3]; IV 2.5 mg/kg
  Cmax: 3620 ng/mL
  Tmax: 0.08 h
  clearance: 3.93 mL/min/kg
  half-life: 3.81 h

## N#Cc1ccc(N[C@H]2CC[C@H](N(C(=O)NCc3ccccc3)c3ccc(N4CCN(CC5CN(c6ccc7c(c6)C(=O)N(C6CCC(=O)NC6=O)C7=O)C5)CC4)cc3)CC2)nc1 (some centres unmarked) [ZLC5-6]
CDK12 and CDK13 proteins [4]
  degradation of CDK12 and CDK13 protein levels in cells: effectively degrade
[5]
  IC50: 0.498 µM

## N#Cc1ccc(N[C@H]2CC[C@H](N(C(=O)NCc3ccccc3)c3ccc(N4CCN(C(=O)C5CCN(c6ccc7c(c6)C(=O)N(C6CCC(=O)NC6=O)C7=O)CC5)CC4)cc3)CC2)nc1 (some centres unmarked) [ZLC5-31]
CDK12 and CDK13 proteins [4]
  degradation of CDK12 and CDK13 protein levels in cells: effectively degrade
[5]
  IC50: 0.389 µM

## N#Cc1ccc(N[C@H]2CC[C@H](N(C(=O)NCc3ccccc3)c3ccc(N4CCN(C[C@H]5CCN(c6ccc7c(c6)C(=O)N(C6CCC(=O)NC6=O)C7=O)C5)CC4)cc3)CC2)nc1 (some centres unmarked) [ZLC6-1]
CDK12 and CDK13 proteins [4]
  degradation of CDK12 and CDK13 protein levels in cells: effectively degrade
[5]
  IC50: 0.289 µM
